According to a melting point compilation (Tetko et al.; mined from patent text by program, amines drawn as free bases though some values may be those of a salt):

Row | Structure (SMILES) | melting point [°C]
1 | COc1ccc(Cn2nnc(-c3ccc(Cl)cc3Cl)c2N)cc1 | 134 to 137
2 | Cc1cccc2c(C=C(Br)Br)csc12 | 75 to 78
3 | CCc1cccc(N2C(=S)SCC2(O)CC)n1 (stereo not drawn) | 84
4 | COC(=O)c1cc(C(C)=O)c(C)nc1C1=NC(C)(C(C)C)C(=O)N1 (stereo not drawn) | 118 to 120
5 | CCCCc1n[nH]c(C(=O)OC)c1Cc1ccc(-c2ccccc2-c2nc(=O)s[nH]2)cc1 | 171 to 172
6 | CCOC(=O)c1conc1-c1ccc(Cl)c(F)c1 | 77 to 78
7 | O=C(NCCN1CCC(Oc2ccc(Cl)c(Cl)c2)CC1)c1nnc(Nc2ccccc2Cl)o1 | 161 to 162
8 | CC(C)CC(=O)Nc1cccc(-c2ccnc3c(C(=O)c4ccoc4)cnn23)c1 | 144 to 146
9 | COc1cc(N)cc(OC)c1-c1ccc(C[C@H](NC(=O)c2c(Cl)cccc2Cl)C(=O)O)cc1 | 221 to 222
10 | CC1c2cccc3c2N(CC3)c2ccccc2N1C(=O)CN(C)Cc1ccccc1 (stereo not drawn) | 101 to 106
11 | COc1ccc(-c2c3c(c(O)c4cc(OC)c(OC)c(OC)c24)C(=O)CCC3)cc1OC | 164 to 166
12 | CN(C)C(=O)c1cc(N2CCN([C@H]3CC[C@@H](c4cn(C)c5ccc(C#N)cc54)CC3)CC2)c2ncccc2c1 | 163 to 165
13 | CC1=CC(=C=C2C(C#N)C(=C(C#N)C#N)OC2(C)C)C=C(C)N1c1ccccc1 (stereo not drawn) | 290
14 | O=C1CN(C(=O)c2ccccc2)c2cc(F)ccc2N1 | 226 to 227
15 | CNCC1CN(c2c(F)cc3c(=O)c(C(=O)O)cn(C4CC4)c3c2F)CC1C (stereo not drawn) | 252 to 254
16 | O=c1n(CO)c2ccccc2n1CO | 157 to 161
17 | O=C(NC(CCc1ccccc1)c1nnc(NS(=O)(=O)c2ccccc2)o1)c1cccc2[nH]c(-c3ccncc3)nc12 (stereo not drawn) | 220
18 | NCC1(C(=O)O)CC(c2ccccc2)Cc2c(O)cccc21 (stereo not drawn) | 110 to 112
19 | CCOC(=O)C(C)c1cnc(Cl)c2cc(OC)ccc12 (stereo not drawn) | 126 to 128
20 | Cc1ccc(S(=O)(=O)NC[C@@H]2C[C@@H](S)CN2S(=O)(=O)c2ccc3ccccc3c2)cc1 | 175
21 | CC(=O)OC1CCC2(COS(=O)(=O)c3ccc(C)cc3)C(=CCC3C2CCC2(C)C(OC(C)=O)CCC32)C1 (stereo not drawn) | 135 to 137
22 | CCOC(=O)Oc1c(OC)cc(C=CC(=O)Nc2cnc3c(C)cc(C)cc3c2-c2ccccc2Cl)cc1OC | 228 to 229
23 | CNCCCCn1c(-c2ccc(Br)cc2)csc1=Nc1ccccc1 | 56 to 57
24 | NC(=O)c1n[nH]c2ccc([N+](=O)[O-])cc12 | 221 to 226
25 | N#Cc1ccc(-c2cc(-c3cc(Br)ccc3Cl)no2)cc1 | 198 to 199

Row | Structure (SMILES) | melting point [°C]
26 | CCOCc1cc2cccc(OC)c2o/c1=N\c1ccccc1 | 88 to 90
27 | Cc1c(C(=O)c2sc(Nc3ccc(N4CCOCC4)cc3)nc2N)ncn1C | > 300
28 | COc1ccc(S(=O)(=O)N(CC(N)=O)c2ccc(F)cc2C(O)c2ccccc2Cl)cc1OC (stereo not drawn) | 232
29 | CN(C)c1nc(Cl)nc(-n2ccnc2)n1 | 88 to 92
30 | CCCOc1cc(OCCC)c2c(=O)c(OCCC)c(-c3ccccc3)oc2c1 | 90 to 93
31 | CCOC(=O)C(Cc1cc(Oc2c(Cl)cc(C(F)(F)F)cc2Cl)ccc1SC(F)(F)F)C(=O)OCC | 83
32 | CC(C)(C)OC(=O)N[C@@H](Cc1cc(F)cc(F)c1)[C@H](O)CCl | 149
33 | Cc1cccc(OCC(O)CN2C(=O)C3CCCN3c3ncccc32)c1C (stereo not drawn) | 123 to 125
34 | CN1CCN(c2ccc(Nc3cc(-c4cccc(N5Cc6cc(C(C)(C)C)ccc6C5=O)c4CO)cn(C)c3=O)nn2)CC1 | 171 to 172
35 | O=CN1CCN(S(=O)(=O)CCCOc2ccc3c(c2)CC2NC(=O)NC2=N3)CC1 (stereo not drawn) | 285 to 288
36 | O=C(O)C(=O)CC(=O)c1cc(C(=O)CC(=O)C(=O)O)n(Cc2ccc(F)cc2)n1 | 215 to 217
37 | Nc1cn(-c2cncc(F)c2)nc1Br | 164 to 165
38 | O=C(NCCO)c1cc(Cl)c(O)c(Cl)c1 | 174 to 178
39 | CCCc1nn(-c2ccc(C(F)(F)F)cn2)cc1/C=C/C(=O)OCC | 104 to 105
40 | CCOC(=O)/C=C(C)/C=C/C=C(C)/C=C/c1c(C)oc(C)c1C | 89 to 91
41 | Cc1ccn(-c2nccc3[nH]c(=O)ccc23)n1 | > 300
42 | O=C1c2cccc(O)c2C(=O)c2ccsc21 | 199 to 200
43 | COc1c(C)c(N2CCN(c3ccc(C)cc3)CC2)c(C)c2c1OC(C)C2 (stereo not drawn) | 82 to 84
44 | CCNC(=O)Nc1ccc(-c2sc3c(c2CN(C)CCC(=O)NCCOC)c(=O)n(-c2ccccc2)c(=O)n3Cc2c(F)cccc2F)cc1 | 240 to 244
45 | O=C(OCc1ccccc1)N(CCNC(=O)C(F)(F)F)CCNC(=O)C(F)(F)F | 131 to 132
46 | CC(C#Cc1cccc(C2=NCC(c3ccccc3)O2)c1)N(O)C(N)=O (stereo not drawn) | 145 to 146
47 | CC(C)(C)c1ccc(COc2cc3c(cc2C(=O)c2ccc(C(=O)O)cc2)C(C)(C)CCC3(C)C)cc1 | 218 to 219
48 | COc1cc([N+](=O)[O-])ccc1-c1cccc(C(=O)OC(C)(C)C)c1 | 88 to 88.5
49 | CC(=O)SC1NC(=O)C1Cc1ccccc1 (stereo not drawn) | 42 to 43
50 | COc1ccc(OC)c2c(Nc3cccc(Br)c3)c(C#N)cnc12 | 72 to 74

Row | Structure (SMILES) | melting point [°C]
51 | O=C(NCCCOc1cc(CN2CCCCC2)ccn1)c1cn[nH]c1 | 117 to 119
52 | CC(C(N)=O)n1c(-c2ccc(Cl)cc2)nc2cccnc21 (stereo not drawn) | 202 to 204
53 | CC(C(=O)O)c1ccc2c(c1)C(=O)Cc1cccnc1S2 (stereo not drawn) | 141 to 143
54 | O=C(NCc1cccnc1)c1cnc(N2CCN(CC3CC3)C2=O)s1 | 190 to 192
55 | CN1C(=O)C2CC(c3ccc(N)cc3)(C2)C1=O | 197 to 198
56 | O=Cc1cc(F)cc(Br)c1F | 36 to 38
57 | O=C(CC1CCOCC1)c1c(O)c2cccnc2n(-c2ccccc2)c1=O | 198 to 203
58 | Cc1c(F)c([N+](=O)[O-])cc2c(=O)c(C(=O)O)cn(-c3cc(N)c(F)cc3F)c12 | 250 to 252
59 | CCN(CCOc1cccc2ccccc12)c1ccc(C(=O)O)cc1 | 205 to 206
60 | O=C(O)c1cccc(S(=O)(=O)CCO)c1[N+](=O)[O-] | 178 to 181
61 | Cn1c(CO)nc2cnccc21 | 285 to 290
62 | CCC(=O)/C=C/c1cn(-c2ccccc2)nc1OCc1ccc(OCc2nc(-c3ccco3)oc2C)c(OC)c1 | 167 to 168
63 | O=C1NC(=O)C(S(=O)(=O)c2ccccn2)S1 (stereo not drawn) | 129 to 131
64 | Cc1cn(C2OC(COC(=O)c3ccccc3)C(OC(=O)c3ccccc3)C2OC(=O)c2ccccc2)c(=O)[nH]c1=O (stereo not drawn) | 90
65 | COc1cc(Nc2c(C#N)cnc3cc(-c4ccc(CN5CCOCC5)cn4)ccc23)c(Cl)cc1Cl | 220 to 222
66 | O=C1c2ccccc2C(=O)c2sc(-c3ccncc3)nc21 | > 260
67 | CCCCCCCCCCCCCc1c(C(F)(F)F)noc1NS(=O)(=O)c1ccccc1 | 89
68 | CC(C)Oc1cc(CCC(=O)NS(=O)(=O)Cc2ccccc2)n(Cc2ccc(Cl)cc2Cl)n1 | 183 to 184
69 | NC(=O)N(O)CC=Cc1ccoc1 | 136 to 137
70 | O=C(O)C#Cc1ccc(-c2ccccc2)cc1 | 170
71 | O=C(O)c1c[n+]([O-])cc2ccccc12 | 280 to 283
72 | CC1(C)C(=O)ON(Cc2cc(Cl)ccc2Cl)C1=O | 78 to 80
73 | Cn1cc(CC(=O)O)c(OCc2cc(OCc3ccc4ccccc4n3)no2)n1 | 124 to 125
74 | COc1cc(CCCCC2OC(=O)NC2=O)ccc1OCc1ccccc1 (stereo not drawn) | 92 to 93
75 | COc1c(Cl)nc(SC)nc1NN | 118 to 119

Row | Structure (SMILES) | melting point [°C]
76 | O=C1CC(C(=O)OCc2ccccc2)C(=O)C(Cc2ccccc2)N1 (stereo not drawn) | 119 to 120
77 | CC(C)(C)[Si](Oc1ccc(Br)cc1)(c1ccccc1)c1ccccc1 | 56
78 | OCCCc1cn(Cc2ccccc2)c2ccccc12 | 75
79 | CC(C)n1c2c(c(-c3ccccc3)nc1=O)CCCCCCCCCC2 | 173 to 176
80 | CCC1CC(=O)N(Cc2ccc(NC(C)=O)cc2)N=C1c1ccc(OC)c(OC2CCCC2)c1 (stereo not drawn) | 162
81 | CCNC(=O)Nc1cnc2ccc(-c3ccc(N)c(OC)c3)nc2n1 | > 310
82 | O=C(NCCCN1CCN(Cc2ccc(Cl)cc2)CC1)NC1CCCCC1 | 109 to 112
83 | Brc1ccc2c(c1)C(c1ccncc1)=Cc1ccccc1O2 | 195 to 197
84 | Cc1cc(NCCO)c(N)c([N+](=O)[O-])c1 | 166
85 | CCNC(=O)Nc1cnc2ccc(Nc3ccc(C)cc3)nc2n1 | 235
86 | CC(=O)NCC1CN(c2ccc(N3CCN(c4nnc(C(F)(F)F)s4)CC3)c(F)c2)C(=O)O1 (stereo not drawn) | 255 to 257
87 | CC1=C(C(=O)NC(C)(C)C)C(c2ccccc2Cl)C(C(=O)O)=C(COCCn2c(C)nc3ccccc32)N1 (stereo not drawn) | 187 to 188
88 | CC(C)Nc1nn(C)c(=O)c2cn(Cc3cccc4ccccc34)cc12 | 221 to 222
89 | CC(C)c1ccc(N(Cc2ccc(N(C)C)cc2)C(=O)Nc2c(C(C)C)cccc2C(C)C)cc1 | 203 to 206
90 | N#Cc1ccc(C(=C2CCCC2)c2nc[nH]n2)cc1 | 72
91 | CC(C)(OCc1nn(Cc2ccccc2)c2ccc([N+](=O)[O-])cc12)C(=O)O | 129 to 131
92 | O=C(O)CC(Br)c1ccc([N+](=O)[O-])cc1 (stereo not drawn) | 166 to 167
93 | CC(C)NCCC(CCN1CCCCC1)(C(N)=O)c1ccccc1Cl (stereo not drawn) | 134 to 137
94 | CN(C(=O)c1ccc2nonc2c1)C1CCC1 | 51 to 52
95 | O=C1N[C@H](Cc2cccc(OC(F)(F)C(F)F)c2)[C@H](c2ccnc(F)c2)O1 (racemic) | 118 to 119
96 | COC(=O)c1sc(-c2ccc(OC)cc2)cc1NC(C)=O | 148 to 149
97 | COc1ccc(N2C(=O)[C@@H](OC(C)=O)[C@H]2c2ccccc2)cc1 (relative stereo) | 163
98 | CCOC(=O)NCCCCc1ccccc1 | 60 to 61
